Here are results for 16 molecules from PubChem BioAssay (NCI).

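Method: 48-hour compound exposure of cells in 96-well plates, five concentrations, linear interpolation of endpoints. TGI is the concentration that stops growth completely.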

Test systems include BT-549 breast; CAKI-1 renal; COLO 205 colon; M14 melanoma; NCI-H226 lung; NCI-H23 lung; NCI-H460 lung; OVCAR-3 ovarian; OVCAR-5 ovarian; SF-539 CNS; SK-MEL-2 melanoma; SK-MEL-28 melanoma; UACC-257 melanoma; UACC-62 melanoma.
Assay in all cases: inhibition of tumour cell growth, NCI panel, 48 h

With `N#Cc1c(Cl)cc(C#N)n2c1nc1ccccc12`, the TGI in the experiment with BT-549 breast came to 18.4 µM; with CAKI-1 renal, 16.7 µM; in the experiment on COLO 205 colon it was 15.3 µM; with M14 melanoma, 22.2 µM; with NCI-H226 lung, 71 µM; with NCI-H23 lung, 26.8 µM. Also, the TGI in the experiment with NCI-H460 lung is 35.4 µM; in the experiment on OVCAR-3 ovarian, 10.7 µM; in the experiment with OVCAR-5 ovarian, 30.3 µM; with SF-539 CNS, 19.1 µM; with SK-MEL-2 melanoma it was 33 µM; in the experiment with SK-MEL-28 melanoma it was 26.5 µM. Besides, the TGI with UACC-257 melanoma was determined as 29.7 µM; in the experiment on UACC-62 melanoma, 38.4 µM.

With `O=Cc1ccc2ccocc1-2`, the TGI in the experiment with BT-549 breast, with CAKI-1 renal, in the experiment with COLO 205 colon, with M14 melanoma, with NCI-H226 lung and with NCI-H23 lung was over 100 µM throughout. Also, the TGI in the experiment with NCI-H460 lung, in the experiment with OVCAR-3 ovarian, with OVCAR-5 ovarian, in the experiment with SF-539 CNS, in the experiment on SK-MEL-2 melanoma and in the experiment with UACC-257 melanoma was over 100 µM in each case. In addition, in the experiment with UACC-62 melanoma, the TGI is over 100 µM.

As to `N=c1oc2ccccc2cc1C(=O)Nc1cccc2ccccc12`, the TGI with BT-549 breast, in the experiment on CAKI-1 renal, in the experiment with COLO 205 colon, in the experiment with M14 melanoma, in the experiment on NCI-H226 lung and in the experiment with NCI-H23 lung was over 100 µM throughout. For the same molecule, the TGI in the experiment on NCI-H460 lung, in the experiment with OVCAR-3 ovarian, in the experiment with OVCAR-5 ovarian, in the experiment on SF-539 CNS, with SK-MEL-2 melanoma and with SK-MEL-28 melanoma was over 100 µM each time. The TGI in the experiment on UACC-257 melanoma and in the experiment on UACC-62 melanoma was over 100 µM each time.

On to `CSC1=NN(C(C)=O)C(C(OC(C)=O)C(OC(C)=O)C(OC(C)=O)C(COC(C)=O)OC(C)=O)S1` (centres undefined), for which the TGI in the experiment on BT-549 breast, with CAKI-1 renal, in the experiment with COLO 205 colon, in the experiment with M14 melanoma, with NCI-H226 lung and with NCI-H23 lung was over 100 µM each time. Moreover, the TGI in the experiment on NCI-H460 lung, in the experiment with OVCAR-3 ovarian, in the experiment with OVCAR-5 ovarian, in the experiment with SF-539 CNS, in the experiment on SK-MEL-2 melanoma and with SK-MEL-28 melanoma was over 100 µM in each case. Besides, the TGI in the experiment with UACC-257 melanoma and with UACC-62 melanoma was over 100 µM each time.

Consider `CC1(C)Cc2c(sc3[nH]c(=S)[nH]c(=S)c23)CS1`, for which the TGI in the experiment on BT-549 breast, with CAKI-1 renal, with COLO 205 colon, in the experiment with M14 melanoma, with NCI-H226 lung and with NCI-H23 lung was over 100 µM each time. Also, the TGI in the experiment on NCI-H460 lung was over 100 µM; with OVCAR-3 ovarian, 82.9 µM; with SF-539 CNS, over 100 µM; in the experiment with SK-MEL-2 melanoma, over 100 µM; in the experiment with SK-MEL-28 melanoma, over 100 µM; in the experiment with UACC-257 melanoma it was 73.8 µM. For the same molecule, the TGI in the experiment with UACC-62 melanoma is 67.4 µM.

As to `Cn1nnc2c(C(N)=S)ncn2c1=O`, the TGI with BT-549 breast, in the experiment with CAKI-1 renal, in the experiment on COLO 205 colon, in the experiment on M14 melanoma, in the experiment on NCI-H226 lung and with NCI-H23 lung was over 100 µM each time. The TGI in the experiment with NCI-H460 lung, in the experiment with OVCAR-3 ovarian, in the experiment with OVCAR-5 ovarian, with SF-539 CNS, in the experiment with SK-MEL-2 melanoma and in the experiment with SK-MEL-28 melanoma was over 100 µM throughout. For the same molecule, the TGI with UACC-257 melanoma and in the experiment on UACC-62 melanoma was over 100 µM throughout.

Regarding `CCCCC(=O)/C=c1/cc(C)[nH]c2cccc3cnn1c32`, the TGI in the experiment with BT-549 breast, with CAKI-1 renal, in the experiment on COLO 205 colon, in the experiment with M14 melanoma, in the experiment with NCI-H226 lung and in the experiment with NCI-H23 lung was over 100 µM throughout. Further, the TGI in the experiment on OVCAR-3 ovarian, with OVCAR-5 ovarian, with SF-539 CNS, with SK-MEL-2 melanoma, in the experiment on SK-MEL-28 melanoma and in the experiment on UACC-257 melanoma was over 100 µM in each case. This molecule also registered a TGI with UACC-62 melanoma of over 100 µM.

As for `CN(C)[C@@H]1C(=O)C(C(=O)NCNc2nc3n[nH]nc3c(=O)[nH]2)=C(O)[C@@]2(O)C(=O)C3=C(O)c4c(O)cccc4[C@@](C)(O)[C@H]3C[C@@H]12`, the TGI in the experiment with BT-549 breast is over 100 µM; with CAKI-1 renal it was over 100 µM; in the experiment on COLO 205 colon it was 57.4 µM; with M14 melanoma, 15.8 µM; in the experiment with NCI-H226 lung it was 56.9 µM; in the experiment with NCI-H23 lung, over 100 µM. Further, the TGI with NCI-H460 lung is over 97.1 µM; in the experiment with OVCAR-3 ovarian, over 74.2 µM; in the experiment on OVCAR-5 ovarian, 98.6 µM; in the experiment on SF-539 CNS, 8.88 µM; in the experiment on SK-MEL-2 melanoma it was 3.09 µM; in the experiment with SK-MEL-28 melanoma, 22.1 µM. Further, the TGI in the experiment on UACC-257 melanoma is over 87.8 µM; with UACC-62 melanoma, 7.59 µM.

Turning to `CC(=O)NS(=O)(=O)c1ccc(NCc2cccc3c(=O)c4ccc(Cl)cc4oc23)cc1`, the TGI was over 100 µM in the experiment with BT-549 breast; 69.6 µM in the experiment on CAKI-1 renal; over 100 µM in the experiment with COLO 205 colon; over 100 µM with M14 melanoma; over 100 µM in the experiment with NCI-H226 lung; over 71.6 µM in the experiment on NCI-H23 lung. The TGI in the experiment with NCI-H460 lung is 51 µM; with OVCAR-3 ovarian it was over 93.3 µM; in the experiment on OVCAR-5 ovarian, over 100 µM; with SF-539 CNS, over 65.3 µM; in the experiment with SK-MEL-2 melanoma, over 93.6 µM; in the experiment on SK-MEL-28 melanoma, over 100 µM. Also, the TGI with UACC-257 melanoma and in the experiment with UACC-62 melanoma was over 100 µM throughout.

Turning to `[N-]=[N+]=NC1C(O)C(CO)OC1n1ccc(N)nc1=O` (centres undefined), the TGI is over 625 µM with BT-549 breast; over 625 µM in the experiment on CAKI-1 renal; over 568 µM in the experiment on COLO 205 colon; 186 µM in the experiment on M14 melanoma; over 625 µM with NCI-H226 lung; over 625 µM in the experiment on NCI-H23 lung. For the same molecule, the TGI was over 625 µM with NCI-H460 lung; over 595 µM in the experiment with OVCAR-3 ovarian; over 625 µM with OVCAR-5 ovarian; 455 µM in the experiment on SF-539 CNS; over 585 µM in the experiment on SK-MEL-2 melanoma; over 625 µM in the experiment on SK-MEL-28 melanoma. The TGI was over 625 µM with UACC-257 melanoma and 350 µM in the experiment with UACC-62 melanoma.

Take `CCc1n[nH]c(=O)n1CC`: the TGI in the experiment with BT-549 breast, in the experiment with CAKI-1 renal, with COLO 205 colon, in the experiment with NCI-H226 lung, in the experiment with NCI-H23 lung and in the experiment with NCI-H460 lung was over 100 µM throughout. The TGI in the experiment with OVCAR-3 ovarian, with OVCAR-5 ovarian, with SF-539 CNS, with SK-MEL-2 melanoma, with SK-MEL-28 melanoma and with UACC-257 melanoma was over 100 µM each time. This molecule also had a TGI in the experiment with UACC-62 melanoma of over 100 µM.

Consider `O=C(c1cscc1CCc1ccccc1)c1cscc1CCc1ccccc1`, for which the TGI in the experiment with BT-549 breast, in the experiment with CAKI-1 renal, in the experiment with COLO 205 colon, in the experiment on M14 melanoma, in the experiment on NCI-H226 lung and in the experiment with NCI-H23 lung was over 100 µM throughout. Further, the TGI in the experiment with NCI-H460 lung, with OVCAR-5 ovarian, with SF-539 CNS, with SK-MEL-2 melanoma, with SK-MEL-28 melanoma and in the experiment with UACC-257 melanoma was over 100 µM each time. This molecule displayed a TGI in the experiment with UACC-62 melanoma of over 100 µM.

Regarding `NS(=O)(=O)c1nnc(NS(=O)(=O)c2ccccc2[N+](=O)[O-])s1`, the TGI in the experiment on BT-549 breast, in the experiment with CAKI-1 renal, with COLO 205 colon, in the experiment on M14 melanoma, in the experiment with NCI-H226 lung and with NCI-H23 lung was over 100 µM throughout. The TGI in the experiment with NCI-H460 lung, with OVCAR-3 ovarian, in the experiment with OVCAR-5 ovarian, in the experiment on SF-539 CNS, with SK-MEL-2 melanoma and with SK-MEL-28 melanoma was over 100 µM throughout. The TGI in the experiment on UACC-62 melanoma was over 100 µM.

As for `C[C@@H]1S[C@H](c2c(F)cccc2Cl)n2c1nc1ccccc12`, the TGI turned out to be 28.2 µM in the experiment with BT-549 breast; 76.5 µM in the experiment on CAKI-1 renal; 23.6 µM in the experiment with COLO 205 colon; 42 µM in the experiment on M14 melanoma; 37 µM in the experiment with NCI-H226 lung; 28 µM in the experiment on NCI-H23 lung. For the same molecule, the TGI is 28.2 µM in the experiment with OVCAR-3 ovarian; over 100 µM in the experiment on OVCAR-5 ovarian; 28.9 µM with SF-539 CNS; 29.3 µM with SK-MEL-2 melanoma; 26.5 µM with SK-MEL-28 melanoma; 38.5 µM in the experiment with UACC-257 melanoma. Further, the TGI in the experiment with UACC-62 melanoma was 29.7 µM.

As to `COc1cc(S(=O)(=O)Nc2ccc(-c3csc(N4C(=O)C(C)SC4c4cccs4)n3)cc2)ccc1Cl` (centres undefined), the TGI is over 100 µM in the experiment on BT-549 breast; over 100 µM with CAKI-1 renal; 49.4 µM with COLO 205 colon; over 100 µM in the experiment with M14 melanoma; over 100 µM with NCI-H226 lung; over 100 µM with NCI-H23 lung. The TGI with OVCAR-3 ovarian is over 100 µM; in the experiment with OVCAR-5 ovarian it was over 100 µM; in the experiment on SF-539 CNS, over 100 µM; in the experiment on SK-MEL-2 melanoma it was 22.8 µM; with SK-MEL-28 melanoma, 69 µM; in the experiment with UACC-62 melanoma, over 100 µM.

As to `COc1ccc(-c2sc(Br)c3c2C(=O)C2OC(=O)NC32)cc1OC` (centres undefined), the TGI in the experiment on BT-549 breast, in the experiment with CAKI-1 renal, in the experiment on COLO 205 colon, in the experiment with M14 melanoma, in the experiment with NCI-H226 lung and in the experiment on NCI-H23 lung was over 100 µM each time. The TGI with NCI-H460 lung, with OVCAR-3 ovarian, in the experiment with OVCAR-5 ovarian, in the experiment with SF-539 CNS, in the experiment with SK-MEL-2 melanoma and in the experiment on UACC-257 melanoma was over 100 µM throughout. This molecule also returned a TGI in the experiment on UACC-62 melanoma of over 100 µM.
